# Columns and labels:
# Experiment in all cases: relative viability (nuclei count vs DMSO), 5 days (fraction); higher = more cells survive
# SK-LU-1 = test system: SK-LU-1
# How it was run: (§1)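 Values are medians from duplicate plates. Each reflects relative viability, defined as the nuclei count of treated wells over that of vehicle wells. Lung cancer cell lines in 1536-well plates were pin-tool dosed one day after seeding with one drug alone or with a fixed anchor-drug dose plus five library-drug doses (not always all listed) in √10 steps, then fixed, stained and imaged at 4× after 5 days.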
# LCLC-97TM1 = test system: LCLC-97TM1
# How it was run: as §1
# NCI-H1650 = test system: NCI-H1650
# How it was run: as §1
# CAL-12T = test system: CAL-12T
# How it was run: as §1
# NCI-H3122 = test system: NCI-H3122
# How it was run: as §1
# NCI-H322M = test system: NCI-H322M
# How it was run: as §1
# LXF-289 = test system: LXF-289
# How it was run: as §1
# LCLC-103H = test system: LCLC-103H
# How it was run: as §1
# HOP-62 = test system: HOP-62
# How it was run: as §1
# NCI-H1437 = test system: NCI-H1437
# How it was run: as §1
# NCI-H647 = test system: NCI-H647
# How it was run: as §1
# NCI-H2405 = test system: NCI-H2405
# How it was run: as §1
# HCC-44 = test system: HCC-44
# How it was run: as §1
# NCI-H2087 = test system: NCI-H2087
# How it was run: as §1
# NCI-H1395 = test system: NCI-H1395
# How it was run: as §1
# BEN = test system: BEN
# How it was run: as §1
# 201T = test system: 201T
# How it was run: as §1
# NCI-H1944 = test system: NCI-H1944
# How it was run: as §1
# NCI-H727 = test system: NCI-H727
# How it was run: as §1
# HCC-827 = test system: HCC-827
# How it was run: as §1
# NCI-H1793 = test system: NCI-H1793
# How it was run: as §1
# NCI-H2228 = test system: NCI-H2228
# How it was run: as §1
# RERF-LC-KJ = test system: RERF-LC-KJ
# How it was run: as §1
structure (smiles),measurement,setting,value
O=C(O)c1ccc(-c2c[nH]c3ncc(-c4ccccc4)cc23)cc1C1CCCC1 + N=C(N)NC(=N)NCCc1ccccc1 [Phenformin] (partner 250 µM),relative viability,SK-LU-1; first compound 0.04 µM,0.537
same,relative viability,SK-LU-1; first compound 0.1265 µM,0.585
same,relative viability,SK-LU-1; first compound 0.4 µM,0.459
same,relative viability,SK-LU-1; first compound 1.265 µM,0.363
same,relative viability,LCLC-97TM1; first compound 0.04 µM,0.475
same,relative viability,LCLC-97TM1; first compound 0.1265 µM,0.435
same,relative viability,LCLC-97TM1; first compound 0.4 µM,0.5
same,relative viability,LCLC-97TM1; first compound 1.265 µM,0.399
same,relative viability,NCI-H1650; first compound 0.04 µM,0.469
same,relative viability,NCI-H1650; first compound 0.1265 µM,0.472
same,relative viability,NCI-H1650; first compound 0.4 µM,0.338
same,relative viability,NCI-H1650; first compound 1.265 µM,0.2
same,relative viability,CAL-12T; first compound 0.04 µM,0.549
same,relative viability,CAL-12T; first compound 0.1265 µM,0.629
same,relative viability,CAL-12T; first compound 0.4 µM,0.579
same,relative viability,CAL-12T; first compound 1.265 µM,0.337
same,relative viability,NCI-H3122; first compound 0.04 µM,0.355
same,relative viability,NCI-H3122; first compound 0.1265 µM,0.399
same,relative viability,NCI-H3122; first compound 0.4 µM,0.394
same,relative viability,NCI-H3122; first compound 1.265 µM,0.337
same,relative viability,NCI-H322M; first compound 0.04 µM,0.772
same,relative viability,NCI-H322M; first compound 0.1265 µM,0.832
same,relative viability,NCI-H322M; first compound 0.4 µM,0.782
same,relative viability,NCI-H322M; first compound 1.265 µM,0.63
same,relative viability,LXF-289; first compound 0.04 µM,0.543
same,relative viability,LXF-289; first compound 0.1265 µM,0.507
same,relative viability,LXF-289; first compound 0.4 µM,0.485
same,relative viability,LXF-289; first compound 1.265 µM,0.243
same,relative viability,LCLC-103H; first compound 0.04 µM,0.369
same,relative viability,LCLC-103H; first compound 0.1265 µM,0.34
same,relative viability,LCLC-103H; first compound 0.4 µM,0.389
same,relative viability,LCLC-103H; first compound 1.265 µM,0.371
same,relative viability,HOP-62; first compound 0.04 µM,0.699
same,relative viability,HOP-62; first compound 0.1265 µM,0.669
same,relative viability,HOP-62; first compound 0.4 µM,0.611
same,relative viability,HOP-62; first compound 1.265 µM,0.595
same,relative viability,NCI-H1437; first compound 0.04 µM,0.295
same,relative viability,NCI-H1437; first compound 0.1265 µM,0.298
same,relative viability,NCI-H1437; first compound 0.4 µM,0.319
same,relative viability,NCI-H1437; first compound 1.265 µM,0.202
same,relative viability,NCI-H647; first compound 0.04 µM,0.611
same,relative viability,NCI-H647; first compound 0.1265 µM,0.598
same,relative viability,NCI-H647; first compound 0.4 µM,0.478
same,relative viability,NCI-H647; first compound 1.265 µM,0.38
same,relative viability,NCI-H2405; first compound 0.04 µM,0.445
same,relative viability,NCI-H2405; first compound 0.1265 µM,0.442
same,relative viability,NCI-H2405; first compound 0.4 µM,0.382
same,relative viability,NCI-H2405; first compound 1.265 µM,0.383
same,relative viability,HCC-44; first compound 0.04 µM,0.198
same,relative viability,HCC-44; first compound 0.1265 µM,0.295
same,relative viability,HCC-44; first compound 0.4 µM,0.224
same,relative viability,HCC-44; first compound 1.265 µM,0.141
same,relative viability,NCI-H2087; first compound 0.04 µM,0.472
same,relative viability,NCI-H2087; first compound 0.1265 µM,0.461
same,relative viability,NCI-H2087; first compound 0.4 µM,0.397
same,relative viability,NCI-H2087; first compound 1.265 µM,0.393
same,relative viability,NCI-H1395; first compound 0.04 µM,0.452
same,relative viability,NCI-H1395; first compound 0.1265 µM,0.44
same,relative viability,NCI-H1395; first compound 0.4 µM,0.413
same,relative viability,NCI-H1395; first compound 1.265 µM,0.414
same,relative viability,BEN; first compound 0.04 µM,0.274
same,relative viability,BEN; first compound 0.1265 µM,0.283
same,relative viability,BEN; first compound 0.4 µM,0.247
same,relative viability,BEN; first compound 1.265 µM,0.246
same,relative viability,201T; first compound 0.04 µM,0.477
same,relative viability,201T; first compound 0.1265 µM,0.45
same,relative viability,201T; first compound 0.4 µM,0.456
same,relative viability,201T; first compound 1.265 µM,0.437
same,relative viability,NCI-H1944; first compound 0.04 µM,0.191
same,relative viability,NCI-H1944; first compound 0.1265 µM,0.214
same,relative viability,NCI-H1944; first compound 0.4 µM,0.194
same,relative viability,NCI-H1944; first compound 1.265 µM,0.172
same,relative viability,NCI-H727; first compound 0.04 µM,0.464
same,relative viability,NCI-H727; first compound 0.1265 µM,0.684
same,relative viability,NCI-H727; first compound 0.4 µM,0.582
same,relative viability,NCI-H727; first compound 1.265 µM,0.509
same,relative viability,HCC-827; first compound 0.04 µM,0.406
same,relative viability,HCC-827; first compound 0.1265 µM,0.397
same,relative viability,HCC-827; first compound 0.4 µM,0.43
same,relative viability,HCC-827; first compound 1.265 µM,0.386
same,relative viability,NCI-H1793; first compound 0.04 µM,0.404
same,relative viability,NCI-H1793; first compound 0.1265 µM,0.494
same,relative viability,NCI-H1793; first compound 0.4 µM,0.374
same,relative viability,NCI-H1793; first compound 1.265 µM,0.365
same,relative viability,NCI-H2228; first compound 0.04 µM,0.37
same,relative viability,NCI-H2228; first compound 0.1265 µM,0.344
same,relative viability,NCI-H2228; first compound 0.4 µM,0.349
same,relative viability,NCI-H2228; first compound 1.265 µM,0.245
same,relative viability,RERF-LC-KJ; first compound 0.04 µM,0.432
same,relative viability,RERF-LC-KJ; first compound 0.1265 µM,0.456
same,relative viability,RERF-LC-KJ; first compound 0.4 µM,0.389
same,relative viability,RERF-LC-KJ; first compound 1.265 µM,0.369

# From the supplement of paper PMC10307832
